Data published in the OligoGym collection.
These antisense oligonucleotides have a phosphorothioate backbone; sugars and methylation of C are not fully specified.

Assays:
Conditions in all cases: ASO
SUMO1 = target: SUMO1
REL = target: REL
PLA2G4A = target: PLA2G4A
EGR1 = target: EGR1
Also: test concentration or dose not given here.

## AAACAATAATGAATAATG
SUMO1
  remaining target (mRNA or protein) (fraction of control): ≥ 1

## AAACAGTAGTATTGGAAT
REL
  remaining target (mRNA or protein) (fraction of control): ≥ 1

## AAACGCCCAAAACTCTGT
PLA2G4A
  remaining target (mRNA or protein) (fraction of control): ≥ 1

## AAAGAGGTAAAGGGCATT
PLA2G4A
  remaining target (mRNA or protein) (fraction of control): ≥ 1

## AAATAAGTCGGGAGCCAT
PLA2G4A
  remaining target (mRNA or protein) (fraction of control): ≥ 1

## AAATCCTTCCCCTTCCCG
SUMO1
  remaining target (mRNA or protein) (fraction of control): ≥ 1

## AAATCGTAGGTCTGGGCA
PLA2G4A
  remaining target (mRNA or protein) (fraction of control): ≥ 1

## AACGGAACAACACTCTGA
EGR1
  remaining target (mRNA or protein) (fraction of control): ≥ 1

## AACTTCCGCTACGCCTCG
SUMO1
  remaining target (mRNA or protein) (fraction of control): ≥ 1

## AAGGGATACGGCAGGTTA
PLA2G4A
  remaining target (mRNA or protein) (fraction of control): ≥ 1

## AAGTCGGGAGCCATAAAA
PLA2G4A
  remaining target (mRNA or protein) (fraction of control): 0.87

## AATCCACTTGAGATGGGC
REL
  remaining target (mRNA or protein) (fraction of control): 0.74

## AATGGATTGATTCCTGCC
REL
  remaining target (mRNA or protein) (fraction of control): ≥ 1

## AATTTCCAGTATTTATGC
SUMO1
  remaining target (mRNA or protein) (fraction of control): 0.45

## ACAATGAAAACAAACAAT
SUMO1
  remaining target (mRNA or protein) (fraction of control): ≥ 1

## ACACGACAAATCCTTAAT
REL
  remaining target (mRNA or protein) (fraction of control): ≥ 1

## ACATGATGACGGTGGCTT
SUMO1
  remaining target (mRNA or protein) (fraction of control): ≥ 1

## ACCACATTACAAAAGAAC
SUMO1
  remaining target (mRNA or protein) (fraction of control): ≥ 1

## ACCAGAAACGCCCAAAAC
PLA2G4A
  remaining target (mRNA or protein) (fraction of control): 0.21

## ACTAATGTAATTCTCACT
REL
  remaining target (mRNA or protein) (fraction of control): ≥ 1

## ACTCGATTTTCTAGCATT
EGR1
  remaining target (mRNA or protein) (fraction of control): ≥ 1

## ACTGACTATCTTGAACAA
REL
  remaining target (mRNA or protein) (fraction of control): ≥ 1

## ACTGCTATCCTGTCCAAT
SUMO1
  remaining target (mRNA or protein) (fraction of control): 0.67

## ACTTCCATCTCCCACTGA
SUMO1
  remaining target (mRNA or protein) (fraction of control): 0.47

## AGAGGATCACCATTGGTT
EGR1
  remaining target (mRNA or protein) (fraction of control): ≥ 1

## AGAGGTAAAGGGCATTGT
PLA2G4A
  remaining target (mRNA or protein) (fraction of control): ≥ 1

## AGATGGTGCTGAGGACGA
EGR1
  remaining target (mRNA or protein) (fraction of control): ≥ 1

## AGATGTGTTGTCATTTTC
SUMO1
  remaining target (mRNA or protein) (fraction of control): ≥ 1

## AGCACTCCTTCAGCCCTT
PLA2G4A
  remaining target (mRNA or protein) (fraction of control): 0.29

## AGCAGTGTTCTGTTGTAT
SUMO1
  remaining target (mRNA or protein) (fraction of control): ≥ 1

## AGCCCACTGTCCACTACA
PLA2G4A
  remaining target (mRNA or protein) (fraction of control): 0.2

## AGGATTGAGGGAAAAGAA
SUMO1
  remaining target (mRNA or protein) (fraction of control): ≥ 1

## AGGCCATTATCATACGAT
PLA2G4A
  remaining target (mRNA or protein) (fraction of control): ≥ 1

## AGTCAGGAGGCCGAGGGA
REL
  remaining target (mRNA or protein) (fraction of control): ≥ 1

## AGTGGATGATGGTTGGGC
PLA2G4A
  remaining target (mRNA or protein) (fraction of control): ≥ 1

## ATAAGTCGGGAGCCATAA
PLA2G4A
  remaining target (mRNA or protein) (fraction of control): 0.98

## ATAATGAATAATGAGCAC
SUMO1
  remaining target (mRNA or protein) (fraction of control): ≥ 1

## ATACGCACCGGAGGCCAT
REL
  remaining target (mRNA or protein) (fraction of control): ≥ 1

## ATAGCACTCCTTCAGCCC
PLA2G4A
  remaining target (mRNA or protein) (fraction of control): ≥ 1

## ATCAAGGGATACGGCAGG
PLA2G4A
  remaining target (mRNA or protein) (fraction of control): 0.51

## ATGATTCTTTGAGTTTCT
SUMO1
  remaining target (mRNA or protein) (fraction of control): 0.59

## ATGCCTCTTGCGTTCATC
EGR1
  remaining target (mRNA or protein) (fraction of control): ≥ 1

## ATGCCTTTTGCTTCCCAA
REL
  remaining target (mRNA or protein) (fraction of control): 0.14

## ATGCTGCCTGCTGATCGC
REL
  remaining target (mRNA or protein) (fraction of control): 0.41

## ATGTCCGAAAGCCCTGTG
EGR1
  remaining target (mRNA or protein) (fraction of control): ≥ 1

## ATGTGAGCCCACTGTCCA
PLA2G4A
  remaining target (mRNA or protein) (fraction of control): ≥ 1

## ATTCACCTTCCTTCTTAT
SUMO1
  remaining target (mRNA or protein) (fraction of control): 0.55

## ATTCTCAGTCAGTATTAT
REL
  remaining target (mRNA or protein) (fraction of control): 0.75

## ATTCTCTGACCCTCAAAG
SUMO1
  remaining target (mRNA or protein) (fraction of control): ≥ 1

## ATTTGTATCTAAAACGCA
REL
  remaining target (mRNA or protein) (fraction of control): ≥ 1

## CAAAAGGCACCAAGACGT
EGR1
  remaining target (mRNA or protein) (fraction of control): ≥ 1

## CAAAATGCTGCATCTATA
REL
  remaining target (mRNA or protein) (fraction of control): 0.79

## CACAATTCTTGTTTACAC
REL
  remaining target (mRNA or protein) (fraction of control): 0.84

## CACAGTCTCACCACATTG
REL
  remaining target (mRNA or protein) (fraction of control): 0.39

## CACTAACTTCCTGGTCAG
REL
  remaining target (mRNA or protein) (fraction of control): 0.48

## CACTCCTTCAGCCCTTCC
PLA2G4A
  remaining target (mRNA or protein) (fraction of control): ≥ 1

## CACTGCCCCAGACACCCA
PLA2G4A
  remaining target (mRNA or protein) (fraction of control): ≥ 1

## CAGATGTTTCAAAGAGAT
SUMO1
  remaining target (mRNA or protein) (fraction of control): ≥ 1

## CAGCAGCATCATCTCCTC
EGR1
  remaining target (mRNA or protein) (fraction of control): ≥ 1

## CAGTATGATTCTTTGAGT
SUMO1
  remaining target (mRNA or protein) (fraction of control): 0.53

## CATGGCACAGACACTGTA
EGR1
  remaining target (mRNA or protein) (fraction of control): ≥ 1

## CCACAGTTCAGTTCTCTG
SUMO1
  remaining target (mRNA or protein) (fraction of control): 0.34

## CCACTGGGCAAGCGTAAG
EGR1
  remaining target (mRNA or protein) (fraction of control): ≥ 1

## CCAGGAGTGAAGTAATCA
SUMO1
  remaining target (mRNA or protein) (fraction of control): ≥ 1

## CCATATAAATCTGCTGAT
REL
  remaining target (mRNA or protein) (fraction of control): ≥ 1

## CCCCGCCGCCTCCACCGC
EGR1
  remaining target (mRNA or protein) (fraction of control): 0.38

## CCCCTTCCCGACAGCACA
SUMO1
  remaining target (mRNA or protein) (fraction of control): 0.92

## CCTCAAAGAGAAACCTGA
SUMO1
  remaining target (mRNA or protein) (fraction of control): ≥ 1

## CCTGCGGCGGCGGAAGCT
EGR1
  remaining target (mRNA or protein) (fraction of control): ≥ 1

## CGAGACAACAGGAGGAAG
REL
  remaining target (mRNA or protein) (fraction of control): 0.8
